Laboratory results: article PMC4639830, “Inhibition of DYRK1A and GSK3B induces human β-cell proliferation” (Nature Communications, 2015)

Key:
intact human islets = assay: Intact human islet assay (Ki67, cell numbers); format: cell-based; conditions: 8 days
Description: Rat or human β-cell proliferation assays were performed using dissociated primary rat or human islets. Islets were treated with the indicated compounds in the presence of EdU for 4 days before fixing and staining. EdU incorporation was measured by click reaction with AlexaFluor-647-azide (Invitrogen). For intact islet assays, primary human islets were treated for 7 or 8 days (as indicated in the legend). Rat dissociated islets were cultured in RPMI medium containing 10% FBS and human dissociated islets were cultured in PIM-S media (Prodo laboratories) with 10% human […].

[1] = tested on: human islets in STZ-treated NSG mice; assay: Human islets transplanted under kidney capsule of STZ-treated NSG mice, oral dosing; format: in vivo, mouse; conditions: 50 mg kg^−1, twice daily, 9 days
From the text: All animal care and experimental procedures were approved by the Institutional Animal Care and Use Committee (IACUC) of Genomics Institute of the Novartis Research Foundation and strictly followed the NIH guidelines for humane treatment of animals. The double transgenic RIP-DTA male mice (Tg(Ins2-rtTA)2Efr Tg(teto-DTA)1Gfi/J; Jackson Laboratory, Stock # 008755) were bred in-house and were maintained in a 12-h light/12-dark cycle environment with controlled temperature, humidity and ventilation. Animals were housed 3–5 mice per cage and had free access to water and standard laboratory chow. […] Blood glucose levels were measured from tail-vein blood with a glucometer (AlphaTrak2 Monitoring System; Abbott). […] Body weight and blood glucose were monitored every third day. […] Pancreatic insulin content was determined by MSD (meso-scale discovery). […] Baseline body weight and tail-vein blood glucose measurements were recorded before diabetic induction. To obtain a diabetic state, animals were given an intraperitoneal dose of STZ (135 mg kg^−1) and blood glucose was monitored before transplant. […]
Human islets (obtained commercially from Prodo Laboratories Inc.) were recovered for 48 h before transplantation. […] While mice were prepared, islets were counted according to IEQs and prepared into islet suspension of 800 IEQ/mouse in cold PBS. […]

BMX = target: T1, BMX (Homo sapiens, UniProt P51813); assay: Kinase profiling; format: biochemical; conditions: Conc 1000 nM; read-out: Percent inhibition, BMX
T1 construct: purchased Ambit KINOMEscan
T1 sequence (P51813 whole entry): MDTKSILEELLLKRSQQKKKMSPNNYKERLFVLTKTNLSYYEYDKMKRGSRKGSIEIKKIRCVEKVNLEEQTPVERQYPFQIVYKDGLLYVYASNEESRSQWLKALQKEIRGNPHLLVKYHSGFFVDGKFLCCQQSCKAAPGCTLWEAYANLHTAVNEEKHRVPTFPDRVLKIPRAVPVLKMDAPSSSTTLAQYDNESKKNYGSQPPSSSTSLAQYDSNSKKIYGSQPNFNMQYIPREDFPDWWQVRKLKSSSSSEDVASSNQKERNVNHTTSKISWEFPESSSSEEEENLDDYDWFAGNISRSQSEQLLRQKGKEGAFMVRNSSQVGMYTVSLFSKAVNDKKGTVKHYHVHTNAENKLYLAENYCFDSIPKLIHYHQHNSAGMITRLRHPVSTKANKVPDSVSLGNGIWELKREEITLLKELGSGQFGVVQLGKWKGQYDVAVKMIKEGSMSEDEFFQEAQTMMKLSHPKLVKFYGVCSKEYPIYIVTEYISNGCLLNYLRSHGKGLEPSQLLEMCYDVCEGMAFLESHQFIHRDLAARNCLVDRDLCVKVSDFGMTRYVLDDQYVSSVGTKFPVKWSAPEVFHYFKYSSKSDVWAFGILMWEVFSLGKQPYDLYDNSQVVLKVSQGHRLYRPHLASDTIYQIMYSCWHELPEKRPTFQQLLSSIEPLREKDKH
From the text: (§1) ; Fig. 5a; Supplementary Table 1). We focused on Dyrk1a because other kinases inhibited by aminopyrazine compounds were not highly expressed in β-cells and because Dyrk1a was known to inhibit the NFAT pathway that was previously implicated in β-cell proliferation. We used molecular modelling to dock the aminopyrazine compounds into the published structure of Dyrk1a (protein databank accession code 2vx3.pdb; Fig. 5b).

LCK = target: T2, LCK (Homo sapiens, UniProt P06239); assay: Kinase profiling; format: biochemical; conditions: Conc 1000 nM; read-out: Percent inhibition, LCK
T2 construct: purchased Ambit (KINOMEscan)
T2 sequence (P06239 whole entry): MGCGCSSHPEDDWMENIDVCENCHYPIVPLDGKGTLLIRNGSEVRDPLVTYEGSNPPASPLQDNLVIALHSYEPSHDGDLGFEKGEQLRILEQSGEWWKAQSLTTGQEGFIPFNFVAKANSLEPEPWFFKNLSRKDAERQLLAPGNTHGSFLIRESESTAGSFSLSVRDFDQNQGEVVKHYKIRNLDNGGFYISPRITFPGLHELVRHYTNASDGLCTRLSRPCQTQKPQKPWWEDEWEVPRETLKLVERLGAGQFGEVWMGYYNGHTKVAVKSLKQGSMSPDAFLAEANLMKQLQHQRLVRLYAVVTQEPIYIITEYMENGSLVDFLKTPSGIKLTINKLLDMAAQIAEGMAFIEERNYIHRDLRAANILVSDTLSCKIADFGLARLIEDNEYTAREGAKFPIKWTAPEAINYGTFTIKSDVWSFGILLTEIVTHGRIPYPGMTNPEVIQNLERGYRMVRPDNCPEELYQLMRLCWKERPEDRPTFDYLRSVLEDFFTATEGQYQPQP
From the text: as §1

RET = target: T3, RET (Homo sapiens, UniProt P07949); assay: Kinase profiling; format: biochemical; conditions: read-out: Percent inhibition, RET; for inhibition at 1 µM: Conc 1000 nM
T3 construct: purchased Ambit (KINOMEscan)
T3 sequence (P07949 29-1114): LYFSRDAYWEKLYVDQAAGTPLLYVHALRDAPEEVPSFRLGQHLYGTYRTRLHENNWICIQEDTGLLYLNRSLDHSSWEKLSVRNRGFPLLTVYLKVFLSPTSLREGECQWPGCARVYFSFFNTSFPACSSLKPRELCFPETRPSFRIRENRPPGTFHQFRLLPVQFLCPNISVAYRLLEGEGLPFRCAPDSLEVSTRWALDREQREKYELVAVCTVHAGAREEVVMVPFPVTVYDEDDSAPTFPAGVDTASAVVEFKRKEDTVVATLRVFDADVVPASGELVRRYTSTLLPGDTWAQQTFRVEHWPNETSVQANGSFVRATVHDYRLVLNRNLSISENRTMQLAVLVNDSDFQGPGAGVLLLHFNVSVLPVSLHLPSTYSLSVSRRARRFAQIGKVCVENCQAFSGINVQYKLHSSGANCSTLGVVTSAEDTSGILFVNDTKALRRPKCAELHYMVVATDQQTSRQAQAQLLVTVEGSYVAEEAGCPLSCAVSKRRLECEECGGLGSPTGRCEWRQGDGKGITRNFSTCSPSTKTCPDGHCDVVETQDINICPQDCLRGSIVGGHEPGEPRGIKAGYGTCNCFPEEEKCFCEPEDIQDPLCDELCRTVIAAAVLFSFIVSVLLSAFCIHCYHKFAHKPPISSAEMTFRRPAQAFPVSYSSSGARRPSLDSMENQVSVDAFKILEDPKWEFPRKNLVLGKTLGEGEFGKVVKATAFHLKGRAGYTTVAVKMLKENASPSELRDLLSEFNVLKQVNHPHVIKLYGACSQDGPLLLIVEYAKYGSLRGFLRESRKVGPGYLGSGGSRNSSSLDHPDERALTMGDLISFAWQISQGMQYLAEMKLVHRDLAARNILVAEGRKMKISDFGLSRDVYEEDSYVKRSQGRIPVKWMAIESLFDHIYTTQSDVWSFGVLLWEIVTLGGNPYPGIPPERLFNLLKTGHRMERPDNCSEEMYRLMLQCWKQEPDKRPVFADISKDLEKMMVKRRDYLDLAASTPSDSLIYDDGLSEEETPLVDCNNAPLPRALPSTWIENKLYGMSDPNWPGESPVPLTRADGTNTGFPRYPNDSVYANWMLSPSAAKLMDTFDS
From the text: as §1

TTK = target: T4, TTK (Homo sapiens, UniProt P33981); assay: Kinase profiling; format: biochemical; conditions: Conc 1000 nM; read-out: Percent inhibition, TTK
T4 construct: purchased Ambit (KINOMEscan)
T4 sequence (P33981 whole entry): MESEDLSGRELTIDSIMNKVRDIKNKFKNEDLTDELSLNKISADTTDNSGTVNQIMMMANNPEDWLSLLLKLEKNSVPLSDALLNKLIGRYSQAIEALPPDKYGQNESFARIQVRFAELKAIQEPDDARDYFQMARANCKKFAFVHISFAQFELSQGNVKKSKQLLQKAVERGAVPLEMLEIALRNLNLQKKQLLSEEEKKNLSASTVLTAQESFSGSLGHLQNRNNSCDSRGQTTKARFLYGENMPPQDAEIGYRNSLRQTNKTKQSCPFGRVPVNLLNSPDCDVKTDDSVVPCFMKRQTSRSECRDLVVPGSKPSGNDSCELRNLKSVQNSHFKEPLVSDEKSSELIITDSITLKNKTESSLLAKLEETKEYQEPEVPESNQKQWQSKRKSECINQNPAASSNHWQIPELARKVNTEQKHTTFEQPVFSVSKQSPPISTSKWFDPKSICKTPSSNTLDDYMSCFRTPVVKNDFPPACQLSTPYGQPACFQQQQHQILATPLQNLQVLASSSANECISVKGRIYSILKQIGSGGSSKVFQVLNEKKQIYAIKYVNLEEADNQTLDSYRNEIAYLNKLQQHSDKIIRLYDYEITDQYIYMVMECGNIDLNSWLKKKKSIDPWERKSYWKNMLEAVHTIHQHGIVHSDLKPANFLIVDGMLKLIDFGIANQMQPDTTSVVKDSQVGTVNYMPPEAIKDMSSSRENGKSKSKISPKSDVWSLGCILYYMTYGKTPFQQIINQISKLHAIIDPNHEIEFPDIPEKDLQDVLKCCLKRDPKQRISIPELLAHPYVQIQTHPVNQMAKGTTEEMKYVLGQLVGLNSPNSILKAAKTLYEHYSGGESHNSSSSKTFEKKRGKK
From the text: as §1

c-Kit = target: T5, c-Kit (Homo sapiens, UniProt P10721); assay: Kinase profiling; format: biochemical; conditions: Conc 1000 nM; read-out: Percent inhibition, c-Kit
T5 construct: purchased Ambit KINOMEscan
T5 sequence (P10721 26-976): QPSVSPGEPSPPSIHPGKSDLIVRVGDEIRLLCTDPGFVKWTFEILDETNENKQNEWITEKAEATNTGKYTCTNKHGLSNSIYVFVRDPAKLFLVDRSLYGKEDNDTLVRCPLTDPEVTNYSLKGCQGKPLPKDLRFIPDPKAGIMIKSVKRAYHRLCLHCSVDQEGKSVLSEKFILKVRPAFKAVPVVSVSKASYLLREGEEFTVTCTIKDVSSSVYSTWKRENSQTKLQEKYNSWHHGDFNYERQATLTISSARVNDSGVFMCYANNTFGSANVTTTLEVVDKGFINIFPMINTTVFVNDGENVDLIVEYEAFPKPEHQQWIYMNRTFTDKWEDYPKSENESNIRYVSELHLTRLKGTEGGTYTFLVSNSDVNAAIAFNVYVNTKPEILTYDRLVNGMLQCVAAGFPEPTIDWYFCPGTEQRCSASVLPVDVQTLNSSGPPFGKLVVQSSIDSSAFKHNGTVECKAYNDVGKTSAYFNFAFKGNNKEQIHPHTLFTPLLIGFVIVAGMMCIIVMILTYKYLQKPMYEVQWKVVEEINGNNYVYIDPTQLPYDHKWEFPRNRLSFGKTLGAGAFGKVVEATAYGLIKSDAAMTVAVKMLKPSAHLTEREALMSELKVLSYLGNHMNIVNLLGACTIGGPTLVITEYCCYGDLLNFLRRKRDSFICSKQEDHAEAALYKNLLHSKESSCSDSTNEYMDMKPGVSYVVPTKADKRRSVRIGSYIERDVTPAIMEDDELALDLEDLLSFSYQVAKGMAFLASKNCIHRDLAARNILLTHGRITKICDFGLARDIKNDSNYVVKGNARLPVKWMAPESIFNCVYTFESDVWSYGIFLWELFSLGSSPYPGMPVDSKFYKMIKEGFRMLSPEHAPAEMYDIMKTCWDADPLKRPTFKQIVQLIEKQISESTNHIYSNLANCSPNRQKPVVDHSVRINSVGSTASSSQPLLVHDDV
From the text: as §1

[2] = tested on: human islets transplanted into STZ-treated NOD-SCID mice; assay: Transplantation of compound-treated human islets into STZ-treated NOD-SCID mice; format: in vivo, mouse; conditions: islets treated in vitro before transplantation
From the text: Figure 2 AP compounds expand human islets ex vivo with retention of function after transplantation. […] (a) Immunofluorescence for insulin, Ki67 and DAPI on DMSO or GNF4877-treated human intact islets (scale bar, 50 μm). (b) Quantification of Ki67+ as a percent of total insulin+ cells (n=3). […] Data are shown as mean±s.d. (six mice per group; transplanted with islets from a single human donor). […] Data shown as mean±s.d.; (n=6 mice/group, *P<0.05, Student's t-test).
We tested whether aminopyrazine treatment of islets compromised their ability to secrete insulin in vitro and, after transplantation, in vivo.

[3] = tested on: β-catenin nuclear localization in primary rat islets; assay: β-Catenin nuclear translocation; format: cell-based
Description: At the end of the treatment, cells were fixed with 4% paraformaldehyde, blocked and permeabilized, and stained by standard immunofluorescence techniques for β-catenin (Cell signaling, #9562L; dilution 1:500), NFATc1 (Santa Cruz, rabbit polyclonal, SC-7294; dilution 1:200) or NFAT3c (Santa Cruz, SC-8321; dilution 1:200) and nuclear DNA was stained with DAPI (Molecular Probes; dilution 1:1,000). EdU incorporation was measured by click reaction with AlexaFluor-647-azide (Invitrogen). Plates were imaged with confocal microscope and analysed by Metamorph (Molecular Devices).

Dyrk1a = target: T6, Dyrk1a (Homo sapiens, UniProt Q13627); assay: Kinase profiling; format: biochemical; conditions: Conc 1000 nM; read-out: Percent inhibition, DYRK1a
T6 construct: purchased Ambit KINOMEscan

inhibition at 1 µM (Dyrk1a) [%]	Structure (SMILES)	increase in the number of Ki67-positive insulin-positive cells (intact human islets) [fold]	glucose control (fed glucose levels) [1]	inhibition at 1 µM (BMX) [%]	inhibition at 1 µM (LCK) [%]	inhibition at 0.2 µM (RET; Conc 200 nM) [%]	inhibition at 1 µM (RET) [%]	inhibition at 1 µM (TTK) [%]	inhibition at 1 µM (c-Kit) [%]	euglycemia after transplantation of treated islets [2]	β-catenin nuclear translocation [3]
	CC(C)Oc1ccc(F)c(-c2cnc(N)c(C(=O)Nc3cnccc3N3CCC[C@@H](C(=O)O)C3)n2)c1 [GNF4877]	20	trend towards improved glucose control	43	43	26	96	51	77		
98	Nc1ncc(-c2ccccc2)nc1C(=O)Nc1cnccc1N1CCC(C(=O)O)CC1 [GNF7156]			88	31		98	29	49	maintained the ability to preserve euglycemia	induced β-catenin nuclear translocation
